# Assay results published in ChEMBL document CHEMBL1201862, “PubChem BioAssay data set” (2004).
#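 Step 1: Grow cells in 96-well plates. Step 2: Expose to compound for 48 hours at 5 concentrations. Step 3: Interpolate endpoints linearly; if unreached, use highest concentration. The concentration for 50% growth inhibition is given as GI50.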 Activity calls are given as the source filed them. No stated cut-off is given here; in the data, active = GI50 up to about 1.1 µM and inactive = higher.
# Key:
# Assay in all cases: DTP human tumour cell line panel, 48 h
# DMS-273 = system: DMS-273
# HOP-92 = system: HOP-92
# A498 = system: A498
# SF-268 = system: SF-268
# SNB-78 = system: SNB-78
# SW-620 = system: SW-620
# 786-0 = system: 786-0
# SNB-19 = system: SNB-19
# EKVX = system: EKVX
# M14 = system: M14
# LOX IMVI = system: LOX IMVI
# K562 = system: K562
# A549 = system: A549
# CAKI-1 = system: CAKI-1
# KM12 = system: KM12
# HOP-62 = system: HOP-62
# SNB-75 = system: SNB-75
# RXF 631 = system: RXF 631
# UACC-62 = system: UACC-62
# Malme-3M = system: Malme-3M
# SF-295 = system: SF-295
# DMS-114 = system: DMS-114
# TK-10 = system: TK-10
# NCI-H522 = system: NCI-H522
# OVCAR-5 = system: OVCAR-5
# DLD-1 = system: DLD-1
# HT-29 = system: HT-29
# UACC-257 = system: UACC-257
# RPMI-8226 = system: RPMI-8226
# OVCAR-8 = system: OVCAR-8
# IGROV-1 = system: IGROV-1
# HCT-116 = system: HCT-116
# HCC 2998 = system: HCC 2998
# SK-MEL-28 = system: SK-MEL-28
# HOP-18 = system: HOP-18
# OVCAR-3 = system: OVCAR-3
# ACHN = system: ACHN
# NCI-H226 = system: NCI-H226
# SN12C = system: SN12C
# UO-31 = system: UO-31
# KM-20L2 = system: KM-20L2
# HCT-15 = system: HCT-15
# NCI-H460 = system: NCI-H460
# CCRF-CEM = system: CCRF-CEM
# OVCAR-4 = system: OVCAR-4
# SF-539 = system: SF-539
# HL-60 = system: HL-60
# MOLT-4 = system: MOLT-4
# XF498 = system: XF498
# RXF 393 = system: RXF 393
# U-251 = system: U-251
# M19-MEL = system: M19-MEL
# COLO 205 = system: COLO 205
# SK-OV-3 = system: SK-OV-3
# NCI-H23 = system: NCI-H23
# SK-MEL-2 = system: SK-MEL-2
smiles,measurement,setting,value
O=c1ncc(F)cn1C1OC(CO)C(O)C1O (stereo unspecified),GI50,DMS-273,16.7 µM (inactive)
same,GI50,HOP-92,23.8 µM (inactive)
same,GI50,A498,> 44.2 µM (inactive)
same,GI50,SF-268,> 23.9 µM (inactive)
same,GI50,SNB-78,> 29.7 µM (inactive)
same,GI50,SW-620,> 31.4 µM (inactive)
same,GI50,786-0,> 36.4 µM (inactive)
same,GI50,SNB-19,> 18.3 µM (inactive)
same,GI50,EKVX,> 100 µM (inactive)
same,GI50,M14,> 52 µM (inactive)
same,GI50,LOX IMVI,16.7 µM (inactive)
same,GI50,K562,7.38 µM (inactive)
same,GI50,A549,> 36.6 µM (inactive)
same,GI50,CAKI-1,15.5 µM (inactive)
same,GI50,KM12,> 30.5 µM (inactive)
same,GI50,HOP-62,> 30.7 µM (inactive)
same,GI50,SNB-75,6.24 µM (inactive)
same,GI50,RXF 631,41.6 µM (inactive)
same,GI50,UACC-62,> 37.6 µM (inactive)
same,GI50,Malme-3M,> 29.8 µM (inactive)
same,GI50,SF-295,> 29.7 µM (inactive)
same,GI50,DMS-114,> 21.2 µM (inactive)
same,GI50,TK-10,> 69.2 µM (inactive)
same,GI50,NCI-H522,> 32.7 µM (inactive)
same,GI50,OVCAR-5,> 52 µM (inactive)
same,GI50,DLD-1,> 35.8 µM (inactive)
same,GI50,HT-29,> 30.7 µM (inactive)
same,GI50,UACC-257,14.1 µM (inactive)
same,GI50,RPMI-8226,15.1 µM (inactive)
same,GI50,OVCAR-8,> 27.7 µM (inactive)
same,GI50,IGROV-1,> 30.8 µM (inactive)
same,GI50,HCT-116,24.4 µM (inactive)
same,GI50,HCC 2998,16.9 µM (inactive)
same,GI50,SK-MEL-28,> 45.6 µM (inactive)
same,GI50,HOP-18,> 31.5 µM (inactive)
same,GI50,OVCAR-3,> 26.7 µM (inactive)
same,GI50,ACHN,> 44 µM (inactive)
same,GI50,NCI-H226,> 19.1 µM (inactive)
same,GI50,SN12C,> 17.4 µM (inactive)
same,GI50,UO-31,> 100 µM (inactive)
same,GI50,KM-20L2,> 32.9 µM (inactive)
same,GI50,HCT-15,> 100 µM
same,GI50,NCI-H460,23.6 µM (inactive)
same,GI50,CCRF-CEM,14.7 µM (inactive)
same,GI50,OVCAR-4,> 80.5 µM (inactive)
same,GI50,SF-539,> 34.9 µM (inactive)
same,GI50,HL-60,19.3 µM (inactive)
same,GI50,MOLT-4,> 20.7 µM (inactive)
same,GI50,XF498,> 100 µM (inactive)
same,GI50,RXF 393,> 100 µM (inactive)
same,GI50,U-251,> 14.9 µM (inactive)
same,GI50,M19-MEL,> 24.6 µM (inactive)
same,GI50,COLO 205,> 24.6 µM (inactive)
same,GI50,SK-OV-3,> 42.6 µM (inactive)
same,GI50,NCI-H23,> 100 µM (inactive)
same,GI50,SK-MEL-2,> 28.3 µM (inactive)
